Molecular target: PehR (Ralstonia pseudosolanacearum, UniProt Q8XVM3)
Test: biochemical

Chain of PehR (Q8XVM3 1-570): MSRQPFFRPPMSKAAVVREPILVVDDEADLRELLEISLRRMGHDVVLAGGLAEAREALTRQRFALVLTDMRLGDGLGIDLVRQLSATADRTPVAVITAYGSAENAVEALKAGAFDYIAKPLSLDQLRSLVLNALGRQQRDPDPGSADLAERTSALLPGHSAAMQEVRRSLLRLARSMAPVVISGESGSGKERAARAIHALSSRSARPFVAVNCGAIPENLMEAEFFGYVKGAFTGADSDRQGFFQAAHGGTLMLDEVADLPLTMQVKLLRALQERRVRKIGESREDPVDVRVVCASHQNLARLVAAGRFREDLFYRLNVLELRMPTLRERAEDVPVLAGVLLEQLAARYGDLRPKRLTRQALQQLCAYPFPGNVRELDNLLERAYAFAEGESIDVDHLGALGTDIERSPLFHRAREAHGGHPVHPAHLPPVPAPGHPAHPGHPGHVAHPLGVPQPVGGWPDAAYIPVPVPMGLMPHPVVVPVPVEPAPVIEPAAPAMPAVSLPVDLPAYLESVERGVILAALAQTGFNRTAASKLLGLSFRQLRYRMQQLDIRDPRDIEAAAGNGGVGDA

Nc1ncnc2c1ncn2[C@@H]1O[C@H](COP(=O)(O)OP(=O)(O)OP(=O)(O)O)[C@H]2OC3(O[C@H]21)C([N+](=O)[O-])=CC(=[N+]([O-])O)C=C3[N+](=O)[O-] (stereo partly shown) [TNP-ATP]
Kd: 106 µM
